How the values were obtained:
[1] = target: T1, Orexin/Hypocretin receptor type 1 (Homo sapiens, UniProt O43613); assay: Antagonist activity at OX1R (unknown origin) by cell-based calcium assay; assay type: functional
T1 sequence (O43613 whole entry): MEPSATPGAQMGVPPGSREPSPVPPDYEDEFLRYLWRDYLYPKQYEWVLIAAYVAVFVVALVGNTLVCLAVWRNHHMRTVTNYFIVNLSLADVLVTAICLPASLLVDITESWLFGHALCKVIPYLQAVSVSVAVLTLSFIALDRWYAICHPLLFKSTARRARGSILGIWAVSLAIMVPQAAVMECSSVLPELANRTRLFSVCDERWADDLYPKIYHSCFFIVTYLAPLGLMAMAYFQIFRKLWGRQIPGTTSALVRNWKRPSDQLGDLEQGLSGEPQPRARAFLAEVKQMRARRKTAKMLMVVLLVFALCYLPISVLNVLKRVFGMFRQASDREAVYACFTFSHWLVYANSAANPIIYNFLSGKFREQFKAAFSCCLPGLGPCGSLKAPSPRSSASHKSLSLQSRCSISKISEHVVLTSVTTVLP

[2] = target: T2, Orexin receptor type 2 (Homo sapiens, UniProt O43614); assay: Antagonist activity at OX2R (unknown origin) by cell-based calcium assay
T2 sequence (O43614 whole entry): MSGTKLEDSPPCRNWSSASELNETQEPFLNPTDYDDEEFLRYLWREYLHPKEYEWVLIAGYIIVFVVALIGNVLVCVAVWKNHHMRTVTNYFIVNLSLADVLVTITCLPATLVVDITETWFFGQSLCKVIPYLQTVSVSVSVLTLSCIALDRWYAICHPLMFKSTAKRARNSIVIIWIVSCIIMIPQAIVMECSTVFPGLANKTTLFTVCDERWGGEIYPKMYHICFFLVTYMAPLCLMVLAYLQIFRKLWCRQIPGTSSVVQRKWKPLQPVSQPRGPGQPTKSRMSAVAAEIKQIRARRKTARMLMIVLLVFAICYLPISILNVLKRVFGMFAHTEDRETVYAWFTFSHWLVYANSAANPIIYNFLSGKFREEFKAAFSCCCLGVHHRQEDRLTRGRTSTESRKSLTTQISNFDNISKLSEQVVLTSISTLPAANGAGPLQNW

Structure (SMILES)	Ki [1]	IC50 [2]	Ki [2]
COc1ccc2c3c1O[C@H]1[C@H](N(C)C(=O)/C=C/c4ccoc4)CC[C@@]4(O)[C@@H](C2)N(S(=O)(=O)c2ccccc2)CC[C@]314	16.8 nM	> 10000 nM	
COc1ccc2c3c1O[C@H]1[C@H](N(C)C(=O)/C=C/c4ccoc4)CC[C@@]4(O)[C@@H](C2)N(S(=O)(=O)c2ccccc2N(C)C)CC[C@]314	4.75 nM		1300 nM
COc1ccc2c3c1O[C@H]1[C@H](N(C)C(=O)/C=C/c4ccoc4)CC=C4[C@@H](C2)N(S(=O)(=O)c2ccccc2)CC[C@]431	2.34 nM	> 10000 nM	
COc1ccc2c3c1O[C@H]1[C@H](N(C)C(=O)/C=C/c4ccoc4)CC[C@H]4[C@@H](C2)N(S(=O)(=O)c2ccccc2)CC[C@@]341	23.6 nM	> 10000 nM	
COc1ccc2c3c1O[C@H]1[C@H](N(C)C(=O)/C=C/c4ccoc4)CC[C@H]4[C@@H](C2)N(S(=O)(=O)c2ccccc2N(C)C)CC[C@@]341	53.5 nM	> 10000 nM	
COc1ccc2c3c1O[C@H]1[C@H](N(C)C(=O)/C=C/c4ccoc4)CC=C4[C@@H](C2)N(S(=O)(=O)c2ccccc2N(C)C)CC[C@]431	8.82 nM	> 10000 nM	

Source: ChEMBL document CHEMBL5131444, “Essential structure of orexin 1 receptor antagonist YNT-707: Conversion of the 16-cyclopropylmethyl group to the 16-sulfonamide group in d-nor-nalfurafine derivatives” (Bioorg Med Chem Lett, 2022)
